In US7148232B2, “Oxazolo, thiazolo and selenazolo [4,5-c]-quinolin-4-amines and analogs thereof” (3M Innovative Properties Company, priority 1998, dated 2006):

Tests used:
interferon (α) [1] = assay: Interferon (α) induction in human cells (in vitro human blood cell system, interferon by bioassay); assay type: cell-based; details: human PBM's, 48 hours
interferon (α) [2] = assay: Cytokine induction in human cells: interferon (α) secreted by PBMCs (ELISA or bioassay); assay type: cell-based; details: 18 to 24 hours
Protocol: (§1) An in vitro human blood cell system was used to assess cytokine induction by compounds of the invention.
(§2) Whole blood is collected by venipuncture into EDTA vacutainer tubes from healthy human donors. […] The PBMC suspension is added to 48 well flat bottom sterile tissue culture plates (Costar, Cambridge, Mass. or Becton Dickinson Labware, Lincoln Park, N.J.) containing an equal volume of RPMI complete media containing test compound.
(§3) The compounds are solubilized in dimethyl sulfoxide (DMSO). The DMSO concentration should not exceed a final concentration of 1% for addition to the culture wells.
(§4) The solution of test compound is added at 60 μM to the first well containing RPMI complete and serial 3 fold dilutions are made. The PBMC suspension is then added to the wells in an equal volume, bringing the test compound concentrations to the desired range (0.12 to 30 μM). The final concentration of PBMC suspension is 1.5–2×10^6 cells/mL. The plates are covered with sterile plastic lids, mixed gently and then incubated for 18 to 24 hours at 37° C. in a 5% carbon dioxide atmosphere.
(§5) Following incubation the plates are centrifuged for 5–10 minutes at 1000 rpm (˜200×g) at 4° C. The cell culture supernatant is removed with a sterile polypropylene pipet and transferred to sterile polypropylene tubes. Samples are maintained at −30 to −70° C. until analysis. The samples are analyzed for interferon (α) by either ELISA or bioassay and for tumor necrosis factor (α) by ELISA
Interferon is determined by bioassay using A549 human lung carcinoma cells challenged with encephalomyocarditis. […] Briefly stated the method is as follows: A549 cells are incubated with dilutions of samples or a standard interferon at 37° C. for 24 hours. The incubated cells are then infected with an inoculum of encephalomyocarditis virus. The infected cells are incubated for an additional 24 hours at 37° C. before evaluating for viral cytopathic effect. The viral cytopathic effect is quantified by staining with crystal violet followed by visual scoring of the plates. Results are expressed as alpha reference units/mL based on the value obtained for NIH Human Leukocyte IFN standard.
Interferon (α) concentration is determined by ELISA using a Human Multi-Species kit from PBL Biomedical Laboratories, New Brunswick, N.J. according to the manufacturer's instructions.

[3] = system: tumor necrosis factor (α); assay: Cytokine induction in human cells: tumor necrosis factor (α) secreted by PBMCs (ELISA); assay type: cell-based; details: 18 to 24 hours
Protocol: as §1, §2, §3, §4, §5
Tumor necrosis factor (α) (TNF) concentration is determined using ELISA kits available from Genzyme, Cambridge, Mass.; R&D Systems, Minneapolis, Minn.; or Pharmingen, San Diego, Calif. according to the manufacturer's instructions.

Row | melting point | Structure (SMILES) | Interferon (α) Induction in Human Cells (interferon (α) [1]; Dose Concentration 0.01 μg/mL) | Interferon (α) Induction in Human Cells (interferon (α) [1]; Dose Concentration 0.05 μg/mL) | Interferon (α) Induction in Human Cells (interferon (α) [1]; Dose Concentration 0.10 μg/mL) | Interferon (α) Induction in Human Cells (interferon (α) [1]; Dose Concentration 0.50 μg/mL) | Interferon (α) Induction in Human Cells (interferon (α) [1]; Dose Concentration 1.0 μg/mL) | Interferon (α) Induction in Human Cells (interferon (α) [1]; Dose Concentration 5.0 μg/mL) | Interferon (α) Induction in Human Cells (interferon (α) [1]; Dose Concentration 10.0 μg/mL) | Interferon (α) Induction (interferon (α) [2]; Dose Concentration 0.12 μM) | Interferon (α) Induction (interferon (α) [2]; Dose Concentration 0.37 μM) | Interferon (α) Induction (interferon (α) [2]; Dose Concentration 1.11 μM) | Interferon (α) Induction (interferon (α) [2]; Dose Concentration 3.33 μM) | Interferon (α) Induction (interferon (α) [2]; Dose Concentration 10 μM) | Interferon (α) Induction (interferon (α) [2]; Dose Concentration 30 μM) | Tumor Necrosis Factor Induction ([3]; Dose Concentration 0.12 μM) | Tumor Necrosis Factor Induction ([3]; Dose Concentration 0.37 μM) | Tumor Necrosis Factor Induction ([3]; Dose Concentration 1.11 μM) | Tumor Necrosis Factor Induction ([3]; Dose Concentration 3.33 μM) | Tumor Necrosis Factor Induction ([3]; Dose Concentration 10 μM) | Tumor Necrosis Factor Induction ([3]; Dose Concentration 30 μM) | further results
1 | 163 to 165 °C | CC(C)c1nc2c(N)nc3ccccc3c2s1 [Example 20, 2-(1-Methyethyl)thiazolo[4,5-c]quinolin-4-amine] | − | − | − | − | − | + | + | − | − | + | − | − | − | − | − | − | + | + | + | Interferon (α) Induction in Human Cells (interferon (α) [1]; Dose Concentration 25.0 μg/mL): +; Interferon (α) Induction in Human Cells (interferon (α) [1]; Dose Concentration 50.0 μg/mL): +
2 | 158 to 159 °C | Nc1nc2ccccc2c2sc(CCc3ccccc3)nc12 [Example 24, 2-(2-Phenyl-1-ethyl)thiazolo[4,5-c]quinolin-4-amine] | − | − | − | − | − | − | + | − | − | − | − | − | − | − | − | − | − | − | + | Interferon (α) Induction in Human Cells (interferon (α) [1]; Dose Concentration 25.0 μg/mL): +; Interferon (α) Induction in Human Cells (interferon (α) [1]; Dose Concentration 50.0 μg/mL): +
3 | 190 to 192 °C | CCCc1nc2c(N)nc3ccc(N)cc3c2s1 [Example 42, 2-Propylthiazolo[4,5-c]quinolin-4,8-diamine] | − | − | − | + | + | + |  | − | − | − | − | + | − | − | − | + | + | + | + | 
4 | 225 to 227 °C | Nc1nc2ccccc2c2sc(N3CCOCC3)nc12 [Example 53, 2-(4-Morpholino)thiazolo[4,5-c]quinolin-4-amine] | − | − | − | − | − | − | − | − | − | − | − | − | − | − | − | − | − | − | − | Interferon (α) Induction in Human Cells (interferon (α) [1]; Dose Concentration 25.0 μg/mL): +; Interferon (α) Induction in Human Cells (interferon (α) [1]; Dose Concentration 50.0 μg/mL): +
5 | 136 to 138 °C | CCCCc1nc2c(N)nc3cccnc3c2s1 [Example 58, 2-Butylthiazolo[4,5-c][1,5]naphthyridin-4-amine] |  |  |  |  |  |  |  | − | − | − | − | ± | ± | − | + | + | + | + | + | 
6 | 135 to 136 °C | CCCc1nc2c(N)nc3cccnc3c2s1 [Example 60, 2-Propylthiazolo[4,5-c][1,5]naphthyridin-4-amine] |  |  |  |  |  |  |  | − | − | − | − | − | − | − | ± | + | + | + | + | 
7 | 159 to 160 °C | CCCc1nc2c(N)nc3cc(Cl)ccc3c2s1 [Example 63, 7-Chloro-2-propylthiazolo[4,5-c]quinolin-4-amine] |  |  |  |  |  |  |  | − | − | + | + | + | − | + | + | + | + | + | + | 
8 | 152 to 154 °C | CCCc1nc2c(N)nc3cc(OC)ccc3c2s1 [Example 64, 7-Methoxy-2-propylthiazolo[4,5-c]quinolin-4-amine] |  |  |  |  |  |  |  | − | + | + | + | + | + | + | + | + | + | + | + | 
